Laboratory results reported in article PMC6001238, “Iterative Chemical Engineering of Vancomycin Leads to Novel Vancomycin Analogs With a High in Vitro Therapeutic Index” (Frontiers in Microbiology, 2018).
In brackets after ≈: the same amount, converted by molar mass.

Experiments:
E. faecalis VSE 1 = assay: MIC, broth microdilution, vancomycin-sensitive E. faecalis (VSE 1); assay type: cell-based, Enterococcus faecalis; settings: for MIC: Enterococcus faecalis VSE 1 (vancomycin-sensitive), read-out: MIC; for MIC-fold improvement vs. vancomycin: VSE 1, ratio of MIC of vancomycin and MIC of analogue
Method in brief: (§1)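 MIC values come from broth microdilution run to CLSI susceptibility-testing standards. Ultrapure water and uninoculated broth served as controls. In one series, vancomycin at a final 10 μM was co-dosed with the analogue or comparator antibiotic.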

E. faecalis VRE 6 = assay: MIC, broth microdilution, vancomycin-resistant E. faecalis VRE 6 (VanA); assay type: cell-based, Enterococcus faecalis; settings: for MIC: Enterococcus faecalis VRE 6 (vancomycin-resistant), read-out: MIC; for MIC-fold improvement vs. vancomycin: VRE 6, ratio of MIC of vancomycin and MIC of analogue
Method in brief: as §1

E. faecalis VRE 53 = assay: MIC, broth microdilution, vancomycin-resistant E. faecalis VRE 53 (VanA); assay type: cell-based, Enterococcus faecalis; settings: for MIC: Enterococcus faecalis VRE 53 (vancomycin-resistant), read-out: MIC; for MIC-fold improvement vs. vancomycin: VRE 53, ratio of MIC of vancomycin and MIC of analogue
Method in brief: as §1

E. faecalis VRE 29 = assay: MIC, broth microdilution, vancomycin-resistant E. faecalis VRE 29 (VanA); assay type: cell-based, Enterococcus faecalis; settings: for MIC: Enterococcus faecalis VRE 29 (vancomycin-resistant), read-out: MIC; for MIC-fold improvement vs. vancomycin: VRE 29, ratio of MIC of vancomycin and MIC of analogue
Method in brief: as §1

E. faecalis VRE 37 = assay: MIC, broth microdilution, vancomycin-resistant E. faecalis VRE 37 (VanA); assay type: cell-based, Enterococcus faecalis; settings: for MIC: Enterococcus faecalis VRE 37 (vancomycin-resistant), read-out: MIC; for MIC-fold improvement vs. vancomycin: VRE 37, ratio of MIC of vancomycin and MIC of analogue
Method in brief: as §1

[1] = test system: Murine leukemia (L1210) cells; assay: Cytostatic activity, L1210 cell proliferation; assay type: cell-based; settings: mean ± SD of three experiments; highest concentration tested 250 µM; 2 days; read-out: Toxicity (IC50) L1210
Method in brief: (§2)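 Coulter counter cell counts after 37°C culture with compound; IC50 = concentration giving 50% growth inhibition vs negative control. Incubation: L1210 2 d, CEM 3 d, HeLa 4 d. Suspension density before mixing with an equal volume of dilution: 300,000–500,000 cells/mL.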

[2] = test system: human T-lymphocyte (CEM) cells; assay: Cytostatic activity, CEM cell proliferation; assay type: cell-based; settings: mean ± SD of three experiments; highest concentration tested 250 µM; 3 days; read-out: Toxicity (IC50) CEM
Method in brief: as §2

[3] = test system: human cervix carcinoma (HeLa) cells; assay: Cytostatic activity, HeLa cell proliferation; assay type: cell-based; settings: mean ± SD of three experiments; highest concentration tested 250 µM; 4 days; read-out: Toxicity (IC50) HeLa
Method in brief: as §2

[4] = test system: L1210, CEM and HeLa cell lines; assay: Cytostatic activity, average or summary over L1210, CEM and HeLa; assay type: cell-based; settings: average of L1210, CEM and HeLa; read-out: Toxicity (IC50) Average
Method in brief: as §2

[5] = test system: S. aureus VSSA (ATCC 6538); assay: MIC, broth microdilution, vancomycin-sensitive S. aureus (VSSA/MSSA, ATCC 6538); assay type: cell-based, Staphylococcus aureus; settings: for MIC: Staphylococcus aureus VSSA, read-out: MIC; for MIC-fold improvement vs. vancomycin: VSSA, ratio of MIC of vancomycin and MIC of analogue
Method in brief: as §1

S. aureus VISA/HIP5827 = assay: MIC, broth microdilution, vancomycin-intermediate S. aureus VISA HIP5827; assay type: cell-based, Staphylococcus aureus; settings: for MIC: Staphylococcus aureus VISA/HIP5827, read-out: MIC; for MIC-fold improvement vs. vancomycin: VISA/HIP5827, ratio of MIC of vancomycin and MIC of analogue
Method in brief: as §1

S. aureus VRSA = assay: MIC, broth microdilution, vancomycin-resistant S. aureus (VRSA); assay type: cell-based, Staphylococcus aureus; settings: for MIC: Staphylococcus aureus VRSA, read-out: MIC; for MIC-fold improvement vs. vancomycin: VRSA, ratio of MIC of vancomycin and MIC of analogue
Method in brief: as §1

MRSA KS2 = assay: MIC, broth microdilution, MRSA KS2; assay type: cell-based, Staphylococcus aureus; settings: for MIC-fold improvement vs. vancomycin: MRSA KS2, ratio of MIC of vancomycin and MIC of analogue; for MIC: Staphylococcus aureus MRSA KS2, read-out: MIC
Method in brief: as §1

MRSA KS6 = assay: MIC, broth microdilution, MRSA KS6; assay type: cell-based, Staphylococcus aureus; settings: for MIC-fold improvement vs. vancomycin: MRSA KS6, ratio of MIC of vancomycin and MIC of analogue; for MIC: Staphylococcus aureus MRSA KS6, read-out: MIC
Method in brief: as §1

MRSA KS89 = assay: MIC, broth microdilution, MRSA KS89; assay type: cell-based, Staphylococcus aureus; settings: for MIC-fold improvement vs. vancomycin: MRSA KS8, ratio of MIC of vancomycin and MIC of analogue; for MIC: Staphylococcus aureus MRSA KS8, read-out: MIC
Method in brief: as §1

MRSA KS1 = assay: MIC, broth microdilution, MRSA KS1; assay type: cell-based, Staphylococcus aureus; settings: for MIC-fold improvement vs. vancomycin: MRSA KS1, ratio of MIC of vancomycin and MIC of analogue; for MIC: Staphylococcus aureus MRSA KS1, read-out: MIC
Method in brief: as §1

| Compound | MIC (E. faecalis VSE 1) | MIC-fold improvement vs. vancomycin (E. faecalis VSE 1) | MIC (E. faecalis VRE 6) | MIC-fold improvement vs. vancomycin (E. faecalis VRE 6) | MIC (E. faecalis VRE 53) | MIC (E. faecalis VRE 29) | MIC (E. faecalis VRE 37) | IC50 [1] | IC50 [2] | IC50 [3] | IC50 [4] | MIC [5] | MIC-fold improvement vs. vancomycin [5] | MIC (S. aureus VISA/HIP5827) | MIC-fold improvement vs. vancomycin (S. aureus VISA/HIP5827) | MIC (S. aureus VRSA) | MIC-fold improvement vs. vancomycin (S. aureus VRSA) | MIC-fold improvement vs. vancomycin (MRSA KS2) | MIC (MRSA KS2) | MIC-fold improvement vs. vancomycin (MRSA KS6) | further results |
| --- | --- | --- | --- | --- | --- | --- | --- | --- | --- | --- | --- | --- | --- | --- | --- | --- | --- | --- | --- | --- | --- |
| CN[C@H](CC(C)C)C(=O)N[C@H]1C(=O)N[C@@H](CC(N)=O)C(=O)N[C@H]2C(=O)N[C@H]3C(=O)N[C@H](C(=O)N[C@H](C(=O)NCC(=O)Nc4ccc(N5CCOCC5)cc4)c4cc(O)cc(O)c4-c4cc3ccc4O)[C@H](O)c3ccc(c(Cl)c3)Oc3cc2cc(c3O[C@@H]2O[C@H](CO)[C@@H](O)[C@H](O)[C@H]2O[C@H]2C[C@](C)(N)[C@H](O)[C@H](C)O2)Oc2ccc(cc2Cl)[C@H]1O [Vanc-8] | 0.78 µM (≈ 1.3 µg/mL) | 2 | 12.5 µM (≈ 20.8 µg/mL) | 16 | 12.5 µM (≈ 20.8 µg/mL) | 25 µM (≈ 41.7 µg/mL) | 25 µM (≈ 41.7 µg/mL) | > 250 µM | ≥ 250 µM | 107 ± 25 µM | 202 µM | 1.56 µM (≈ 2.6 µg/mL) | 0.5 | 1.56 µM (≈ 2.6 µg/mL) | 4 | 25 µM (≈ 41.7 µg/mL) | 4 | 1 | 0.78 µM (≈ 1.3 µg/mL) | 0.5 | MIC-fold improvement vs. vancomycin (E. faecalis VRE 53): 32; MIC-fold improvement vs. vancomycin (E. faecalis VRE 29): 16; MIC (MRSA KS6): 1.56 µM (≈ 2.6 µg/mL); MIC-fold improvement vs. vancomycin (MRSA KS89): 1; MIC (MRSA KS89): 0.78 µM (≈ 1.3 µg/mL); MIC-fold improvement vs. vancomycin (MRSA KS1): 1; MIC (MRSA KS1): 0.78 µM (≈ 1.3 µg/mL) |
| CNC(CC(C)C)C(=O)NC1C(=O)NC(CC(N)=O)C(=O)NC2C(=O)NC3C(=O)NC(C(=O)NC(C(=O)NCC(=O)Nc4ccc(O)cc4)c4cc(O)cc(O)c4-c4cc3ccc4O)C(O)c3ccc(c(Cl)c3)Oc3cc2cc(c3OC2OC(CO)C(O)C(O)C2OC2CC(C)(N)C(O)C(C)O2)Oc2ccc(cc2Cl)C1O (stereo not shown) [Vanc-1] | 0.78 µM (≈ 1.25 µg/mL) | 2 | 25 µM (≈ 39.9 µg/mL) | 8 | 25 µM (≈ 39.9 µg/mL) | >50 µM | 50 µM (≈ 79.9 µg/mL) | > 250 µM | > 250 µM | 72 ± 10 µM | 191 µM | 0.78 µM (≈ 1.25 µg/mL) | 1 | 0.78 µM (≈ 1.25 µg/mL) | 8 | 25 µM (≈ 39.9 µg/mL) | 4 | 1 | 0.78 µM (≈ 1.25 µg/mL) | 1 | MIC-fold improvement vs. vancomycin (E. faecalis VRE 53): 16; MIC-fold improvement vs. vancomycin (E. faecalis VRE 29): <8; MIC-fold improvement vs. vancomycin (E. faecalis VRE 37): 16; MIC (MRSA KS6): 0.78 µM (≈ 1.25 µg/mL); MIC-fold improvement vs. vancomycin (MRSA KS89): 1; MIC (MRSA KS89): 0.78 µM (≈ 1.25 µg/mL); MIC-fold improvement vs. vancomycin (MRSA KS1): 1; MIC (MRSA KS1): 0.78 µM (≈ 1.25 µg/mL) |
| CN[C@H](CC(C)C)C(=O)N[C@H]1C(=O)N[C@@H](CC(N)=O)C(=O)N[C@H]2C(=O)N[C@H]3C(=O)N[C@H](C(=O)N[C@H](C(=O)NCCNC(=O)/C=C/c4ccc(C)cc4)c4cc(O)cc(O)c4-c4cc3ccc4O)[C@H](O)c3ccc(c(Cl)c3)Oc3cc2cc(c3O[C@@H]2O[C@H](CO)[C@@H](O)[C@H](O)[C@H]2O[C@H]2C[C@](C)(N)[C@H](O)[C@H](C)O2)Oc2ccc(cc2Cl)[C@H]1O [Vanc-53] | 0.78 µM (≈ 1.28 µg/mL) | 2 | 12.5 µM (≈ 20.4 µg/mL) | 16 | 12.5 µM (≈ 20.4 µg/mL) | 25 µM (≈ 40.9 µg/mL) | 25 µM (≈ 40.9 µg/mL) | 176 ± 18 µM | 152 ± 43 µM | 176 ± 103 µM | 168 µM | 0.39 µM (≈ 0.638 µg/mL) | 2 | 0.78 µM (≈ 1.28 µg/mL) | 8 | 0.39 µM (≈ 0.638 µg/mL) | 256 | 2 | 0.39 µM (≈ 0.638 µg/mL) | 2 | MIC-fold improvement vs. vancomycin (E. faecalis VRE 53): 32; MIC-fold improvement vs. vancomycin (E. faecalis VRE 29): 16; MIC-fold improvement vs. vancomycin (E. faecalis VRE 37): 16; MIC (MRSA KS6): 0.39 µM (≈ 0.638 µg/mL); MIC-fold improvement vs. vancomycin (MRSA KS89): 2; MIC (MRSA KS89): 0.39 µM (≈ 0.638 µg/mL); MIC-fold improvement vs. vancomycin (MRSA KS1): 2; MIC (MRSA KS1): 0.39 µM (≈ 0.638 µg/mL) |
| CN[C@H](CC(C)C)C(=O)N[C@H]1C(=O)N[C@@H](CC(N)=O)C(=O)N[C@H]2C(=O)N[C@H]3C(=O)N[C@H](C(=O)N[C@H](C(=O)NCC(=O)Nc4ccc(Cl)cc4)c4cc(O)cc(O)c4-c4cc3ccc4O)[C@H](O)c3ccc(c(Cl)c3)Oc3cc2cc(c3O[C@@H]2O[C@H](CO)[C@@H](O)[C@H](O)[C@H]2O[C@H]2C[C@](C)(N)[C@H](O)[C@H](C)O2)Oc2ccc(cc2Cl)[C@H]1O [Vanc-6] | 0.39 µM (≈ 0.63 µg/mL) | 4 | 3.13 µM (≈ 5.06 µg/mL) | 64 | 12.5 µM (≈ 20.2 µg/mL) | 6.25 µM (≈ 10.1 µg/mL) | 12.5 µM (≈ 20.2 µg/mL) | > 250 µM | 159 ± 13 µM | 91 ± 33 µM | 167 µM | 0.39 µM (≈ 0.63 µg/mL) | 2 | 0.39 µM (≈ 0.63 µg/mL) | 16 | 3.13 µM (≈ 5.06 µg/mL) | 32 | 2 | 0.39 µM (≈ 0.63 µg/mL) | 2 | MIC-fold improvement vs. vancomycin (E. faecalis VRE 37): 64; MIC (MRSA KS6): 0.39 µM (≈ 0.63 µg/mL); MIC-fold improvement vs. vancomycin (MRSA KS89): 2; MIC (MRSA KS89): 0.39 µM (≈ 0.63 µg/mL); MIC-fold improvement vs. vancomycin (MRSA KS1): 2; MIC (MRSA KS1): 0.39 µM (≈ 0.63 µg/mL) |
